# Measured values as given in patent US20230398218A1, “RAS NEOANTIGENS AND USES THEREOF” (priority 2020, published 2023).
# Where two headings read alike, the source gives them in different places. No end group written: not given here.
# Experiments:
# HLA A02.01 [1] = biological target: T1, HLA A02.01 (Homo sapiens, UniProt P04439, D140Y/D185E/D98H/E176V/E277Q/G131W/G231S/I119V/I121R/I166T/I218V/L300P/L318F/N151K/N90K/P208A/P217A/Q86G/Q94H/R138H/R169H/T345S); test: MHC-I peptide binding affinity assay (displacement of radiolabeled reference peptide)
# HLA A01.01 [2] = biological target: T2, HLA A01.01 (Homo sapiens, UniProt P04439, A114D/A174V/A182V/D101N/D185E/E176A/E190D/L180R/Q94H/R68K/S129P/T187R/V100A/V91M/W191G); test: as above
# Text: (§1) 31:813 (1994). […] 149:1896 (1992)).
# HLA A24.02 [3] = test: as above; set-up: species or system human; conditions: Table 11, EGFR T790M peptides; HLA allele A24.02
# Text: as §1
# HLA A02.01 [4] = biological target: T1, HLA A02.01; test: MHC-I peptide binding stability assay (pMHC-I dissociation half-life); conditions: HLA allele A02.01
# Protocol: (§2) Briefly, synthetic genes encoding biotinylated MHC-I heavy and light chains are expressed in E. coli and purified from inclusion bodies using standard methods. The light chain (β2m) is radio-labeled with iodine (1251), and combined with the purified MHC-I heavy chain and peptide of interest at 18° C. to initiate pMHC-I complex formation. These reactions are carried out in streptavidin coated microplates to bind the biotinylated MHC-I heavy chains to the surface and allow measurement of radiolabeled light chain to monitor complex formation. Dissociation is initiated by addition of higher concentrations of unlabeled light-chain and incubation at 37° C. Stability is defined as the length of time in hours it takes for half of the complexes to dissociate, as measured by scintillation counts.
# HLA A03.01 [5] = biological target: T3, HLA A03.01 (Homo sapiens, UniProt P04439); test: MHC-I peptide binding affinity assay (displacement of radiolabeled reference peptide); set-up: made in house; host or cells: E. coli; conditions: Table 10, BTK C481S peptides; HLA allele A03.01
# Text: as §1
# HLA A01.01 [6] = biological target: T2, HLA A01.01; test: MHC-I peptide binding stability assay (pMHC-I dissociation half-life); conditions: HLA allele A01.01
# Protocol: as §2
# HLA A03.01 [7] = biological target: T3, HLA A03.01; test: as above; set-up: made in house; host or cells: E. coli; conditions: Table 10, BTK C481S peptides; HLA allele A03.01
# Protocol: as §2
# HLA B07.02 = HLA B07.02 (Homo sapiens, UniProt P01889); test: MHC-I peptide binding affinity assay (displacement of radiolabeled reference peptide); conditions: Table 11, EGFR T790M peptides; HLA allele B07.02
# Text: as §1
# HLA B08.02 = test: as above; set-up: species or system human; conditions: Table 11, EGFR T790M peptides; HLA allele B08.02
# Text: as §1
# HLA A24.02 [8] = test: MHC-I peptide binding stability assay (pMHC-I dissociation half-life); set-up: species or system human; conditions: Table 11, EGFR T790M peptides; HLA allele A24.02
# Protocol: as §2
# HLA B08.01 = HLA B08.01 (Homo sapiens, UniProt P01889, A93T/A95T/D138N/E176V/E187T/K202T/Q94N/R180D/S35A/V36M/Y33D/Y91F); conditions: read-out: Affinity
# Text: As used herein, the term “affinity” refers to a measure of the strength of binding between two members of a binding pair, for example, an HLA-binding peptide and a class I or II HLA. K D is the dissociation constant and has units of molarity. The affinity constant is the inverse of the dissociation constant. An affinity constant is sometimes used as a generic term to describe this chemical entity. It is a direct measure of the energy of binding. Affinity may be determined experimentally, for example by surface plasmon resonance (SPR) using commercially available Biacore SPR units. […] Likewise, ln(IC50) refers to the natural log of the IC50. Koff refers to the off-rate constant, for example, for dissociation of an HLA-binding peptide and a class I or II HLA. […] Given the conditions in which the assays are run (i.e., limiting HLA protein and labeled reference peptide concentrations), these values approximate KD values. […] Alternatively, binding can be expressed relative to binding by a reference standard peptide. For example, can be based on its IC50, relative to the IC50 of a reference standard peptide.
# In brief, MHCI complexes were prepared and bound to radiolabeled reference peptides. Peptides were incubated at varying concentrations with these complexes for 2 days, and the amount of remaining radiolabeled peptide bound to MHCI was measured using size exclusion gel-filtration.
# [9] = tested on: T2 or HLA-A0201 transfected C1Rs pulsed with peptide; test: IFNγ ELISpot assay; type: cell-based, human; conditions: number of donors responding out of 2; HLA-A02:01 peptides
# Protocol: In some embodiments the immunogenicity is measured by measuring a protein or peptide expressed by the T cell, using ELISpot assay. Peptide-specific T cells are functionally enumerated using the ELISpot assay (BD Biosciences), which measures the release of IFNγ from T cells on a single cell basis. Target cells (T2 or HLA-A0201 transfected C1Rs) were pulsed with 10 μM peptide for one hour at 37 degrees C., and washed three times. 1×10^5 peptide-pulsed targets are co-cultured in the ELISPOT plate wells with varying concentrations of T cells (5×10^2 to 2×10^3) taken from the immunogenicity culture. Plates are developed according to the manufacturer's protocol, and analyzed on an ELISPOT reader (Cellular Technology Ltd.) with accompanying software. Spots corresponding to the number of IFN gamma-producing T cells are reported as the absolute number of spots per number of T cells plated. T cells expanded on modified peptides are tested not only for their ability to recognize targets pulsed with the modified peptide, but also for their ability to recognize targets pulsed with the parent peptide. Some exemplary data are shown below in Table 13.
# [10] = tested on: MHC protein encoded by HLA-C03:04 allele; test: Identification of MHC-bound epitope by mass spectrometry; type: cell-based, human; conditions: MHC encoded by HLA-C03:04 allele
# Text: (§3) In some embodiments, antigenic peptides comprising an epitope may be identified by mass spectrometry to be bound to an MHC encoded by an HLA.
# (§4) Provided herein are KRAS epitopes each of which specifically can bind to the MHC protein encoded by the alleles indicated in right hand column in the same row of Table 1, that have been identified to bind to the MHC protein by mass spectrometry, and that each epitope is presented to T cells by association with the MHC protein in the respective right hand column for each row in Table 1.
# (§5) To assess whether antigens could be processed and presented from the larger polypeptide context, peptides eluted from HLA molecules isolated from cells expressing the genes of interest were analyzed by tandem mass spectrometry (MS/MS).
# [11] = tested on: MHC protein encoded by HLA-C03:03 allele; test: as above; type: cell-based, human; conditions: MHC encoded by HLA-C03:03 allele
# Text: as §3, §4, §5
# HLA A03.01 [12] = biological target: T3, HLA A03.01; test: HLA-peptide elution and targeted MS/MS (PRM) presentation assay; type: cell-based; set-up: expressed in transfected cells; SW620 cells (lentiviral transduction)
# Protocol: as §5
# For analysis of presentation of RAS neoantigens, cell lines were utilized that have RAS mutations naturally or were lentivirally transduced to express the mutated RAS gene. HLA molecules were either isolated based on the natural expression of the cell lines or the cell lines were lentivirally transduced or transiently transfected to express the HLA of interest. […] Greater than 50 million cells expressing peptides encoded by a mutant RAS peptide were cultured and peptides were eluted from HLA-peptide complexes using an acid wash. Eluted peptides were then analyzed by targeted MS/MS with parallel reaction monitoring (PRM). […] Endogenous peptide spectrum is shown in the top panel and the corresponding stable heavy-isotopically labeled spectrum is shown in the bottom panel.
# [13] = Table 11, EGFR T790M peptides, HLA allele A02.01, read-out: Affinity
# [14] = Table 10, BTK C481S peptides, HLA allele A01.01, read-out: Affinity
compound,measurement,setting,value
CC[C@H](C)[C@H](NC(=O)[C@H](CC(C)C)NC(=O)[C@H](CCC(N)=O)NC(=O)[C@@H](NC(=O)[C@@H](NC(=O)[C@H](CO)NC(=O)[C@@H](NC(=O)[C@H](CC(C)C)NC(=O)[C@@H](N)CS)[C@@H](C)O)[C@@H](C)O)C(C)C)C(=O)N[C@@H](CCSC)C(=O)O,IC50,HLA A02.01 [1],537 nM
same,IC50,HLA A01.01 [2],8280 nM
CC[C@H](C)[C@H](N)C(=O)N[C@@H](CCSC)C(=O)N[C@@H](CCC(N)=O)C(=O)N[C@@H](CC(C)C)C(=O)N[C@@H](CCSC)C(=O)N1CCC[C@H]1C(=O)N[C@@H](Cc1ccccc1)C(=O)NCC(=O)N[C@@H](CS)C(=O)N[C@@H](CC(C)C)C(=O)O,IC50,HLA A02.01 [1]; [13],653 nM
same,IC50,HLA A24.02 [3],14100 nM
same,Stability (half-life (hr.)),"HLA A02.01 [4]; Table 11, EGFR T790M peptides",30.94 min
CC[C@H](C)[C@H](NC(=O)[C@@H](N)CC(C)C)C(=O)N[C@@H](CCSC)C(=O)N[C@@H](CCC(N)=O)C(=O)N[C@@H](CC(C)C)C(=O)N[C@@H](CCSC)C(=O)N1CCC[C@H]1C(=O)N[C@@H](Cc1ccccc1)C(=O)NCC(=O)N[C@@H](CS)C(=O)O,IC50,HLA A02.01 [1]; [13],132 nM
same,Stability (half-life (hr.)),"HLA A02.01 [4]; Table 11, EGFR T790M peptides",22.88 min
CSCC[C@H](N)C(=O)N[C@@H](C)C(=O)N[C@@H](CC(N)=O)C(=O)NCC(=O)N[C@@H](CO)C(=O)N[C@@H](CC(C)C)C(=O)N[C@@H](CC(C)C)C(=O)N[C@@H](CC(N)=O)C(=O)N[C@@H](Cc1ccc(O)cc1)C(=O)O,IC50,HLA A03.01 [5],35.6 nM
same,Stability (half-life (hr.)),"HLA A01.01 [6]; Table 10, BTK C481S peptides",12.98 min
same,Stability (half-life (hr.)),HLA A03.01 [7],14.3 min
same,IC50,HLA A01.01 [2]; [14],439 nM
CSCC[C@H](NC(=O)[C@H](CC(C)C)NC(=O)[C@H](CCC(N)=O)NC(=O)[C@@H](N)CCSC)C(=O)N1CCC[C@H]1C(=O)N[C@@H](Cc1ccccc1)C(=O)NCC(=O)N[C@@H](CS)C(=O)N[C@@H](CC(C)C)C(=O)O,IC50,HLA A02.01 [1]; [13],116 nM
same,Stability (half-life (hr.)),"HLA A02.01 [4]; Table 11, EGFR T790M peptides",22.1 min
same,IC50,HLA B07.02,1590 nM
CSCC[C@H](NC(=O)[C@H](CC(C)C)NC(=O)[C@H](CCC(N)=O)NC(=O)[C@@H](N)CCSC)C(=O)N1CCC[C@H]1C(=O)N[C@@H](Cc1ccccc1)C(=O)NCC(=O)N[C@@H](CS)C(=O)N[C@@H](CC(C)C)C(=O)N[C@@H](CC(C)C)C(=O)O,IC50,HLA A02.01 [1]; [13],16.3 nM
same,IC50,HLA A24.02 [3],18900 nM
same,Stability (half-life (hr.)),"HLA A02.01 [4]; Table 11, EGFR T790M peptides",22.87 min
CC[C@H](C)[C@H](NC(=O)[C@H](CC(C)C)NC(=O)[C@@H](N)CCC(N)=O)C(=O)N[C@@H](CCSC)C(=O)N[C@@H](CCC(N)=O)C(=O)N[C@@H](CC(C)C)C(=O)N[C@@H](CCSC)C(=O)N1CCC[C@H]1C(=O)N[C@@H](Cc1ccccc1)C(=O)O,IC50,HLA A02.01 [1]; [13],193 nM
same,IC50,HLA B08.02,5590 nM
same,IC50,HLA A24.02 [3],2030 nM
same,Stability (half-life (hr.)),"HLA A02.01 [4]; Table 11, EGFR T790M peptides",20.44 min
same,Stability (half-life (hr.)),HLA A24.02 [8],22.12 min
CSCC[C@H](NC(=O)[C@H](CCC(=O)O)NC(=O)[C@H](CCCNC(=N)N)NC(=O)[C@H](CC(C)C)NC(=O)[C@H](Cc1ccc(O)cc1)NC(=O)[C@H](CC(N)=O)NC(=O)[C@H](CC(C)C)NC(=O)[C@H](CC(C)C)NC(=O)[C@@H](N)CO)C(=O)O,IC50,HLA B08.01,960 nM
same,Stability (half-life (hr.)),"HLA A02.01 [4]; Table 10, BTK C481S peptides",182.6 min
CC[C@H](C)[C@H](NC(=O)[C@H](CC(C)C)NC(=O)[C@H](CCC(N)=O)NC(=O)[C@@H](N)C(C)C)C(=O)N[C@@H](CCSC)C(=O)N[C@@H](CCC(N)=O)C(=O)N[C@@H](CC(C)C)C(=O)N[C@@H](CCSC)C(=O)N1CCC[C@H]1C(=O)N[C@@H](Cc1ccccc1)C(=O)O,IC50,HLA A02.01 [1]; [13],4940 nM
same,IC50,HLA A24.02 [3],4100 nM
FLGYLILGV,Immunogenicity (# donors/2),[9],1 # donors/2
FLTPKKLQCV,Immunogenicity (# donors/2),[9],1 # donors/2
FQNSYTIGL,Immunogenicity (# donors/2),[9],2 # donors/2
FQYPEFSIEL,Immunogenicity (# donors/2),[9],1 # donors/2
GACGVGKSA,"binding to MHC protein, identified by mass spectrometry",[10],specifically binds
GAVGVGKSA,"binding to MHC protein, identified by mass spectrometry",[11],specifically binds
ILNDTGCHYV,Immunogenicity (# donors/2),[9],1 # donors/2
IMQLMPFGC,IC50,HLA A02.01 [1]; [13],1210 nM
same,Stability (half-life (hr.)),"HLA A02.01 [4]; Table 11, EGFR T790M peptides",22.21 min
LIMQLMPFG,IC50,HLA A02.01 [1]; [13],3340 nM
LLANDLMLI,Immunogenicity (# donors/2),[9],2 # donors/2
LLANGRMPTV,Immunogenicity (# donors/2),[9],2 # donors/2
LTSTVQLIM,Stability (half-life (hr.)),"HLA A01.01 [6]; Table 11, EGFR T790M peptides",6.222 min
same,IC50,"HLA A01.01 [2]; Table 11, EGFR T790M peptides, HLA allele A01.01, read-out: Affinity",2890 nM
QLIMQLMPFG,IC50,HLA A02.01 [1]; [13],5210 nM
RLIWLVKMV,Immunogenicity (# donors/2),[9],1 # donors/2
STVQLIMQL,IC50,HLA A02.01 [1],7260 nM
VLDCCISLL,Immunogenicity (# donors/2),[9],1 # donors/2
VVVGAVGVGK,HLA-eluted peptide detected by mass spectrometry,HLA A03.01 [12]; 293T cells lentivirally transduced with RAS G12V mutation and HLA-A*03:01 gene,detected
same,HLA-eluted peptide detected by mass spectrometry,"HLA A03.01 [12]; SW620 cells naturally expressing RAS G12V, lentivirally transduced with HLA-A*03:01 gene",detected
YMANGSLLNY,IC50,HLA A03.01 [5],95.9 nM
same,Stability (half-life (hr.)),"HLA A01.01 [6]; Table 10, BTK C481S peptides",51.97 min
same,Stability (half-life (hr.)),HLA A03.01 [7],16.75 min
same,IC50,HLA A01.01 [2]; [14],13.2 nM
